Assay [1] relates to Mus musculus. The assay is described as follows: Antiinflammatory activity against DSS-induced chronic colitis in C57BL/6N/Crl mouse model assessed as recovery of body weight at 30 mg/kg, po administered daily 6 days per week for 5 weeks.
Assay [2] relates to Mus musculus. Nature of the assay: Antiinflammatory activity against DSS-induced chronic colitis in C57BL/6N/Crl mouse model assessed as recovery of colon weight at 30 mg/kg, po administered daily 6 days per week for 5 weeks.
Assay [3] has as its system Rattus norvegicus. Nature of the assay: Antiinflammatory activity against TNBS-induced colitis in Sprague-Dawley rat model assessed as recovery of body weight at 300 mg/kg, po administered for 5 days. The assay is classed as functional. As to conditions: time 5 day.
Assay [4] relates to Rattus norvegicus. Nature of the assay: Antiinflammatory activity against TNBS-induced colitis in Sprague-Dawley rat model assessed as recovery of colon weight at 300 mg/kg, po administered for 5 days. Format: functional. The settings on record: time 5 day.
The test system of assay [5] is Mus musculus. Nature of the assay: Antiinflammatory activity against DSS-induced chronic colitis in C57BL/6N/Crl mouse model assessed as recovery of body weight at 300 mg/kg, po administered daily 6 days per week for 5 weeks. Format: functional.
Assay [6] relates to Mus musculus. Nature of the assay: Antiinflammatory activity against DSS-induced chronic colitis in C57BL/6N/Crl mouse model assessed as recovery of colon weight at 300 mg/kg, po administered daily 6 days per week for 5 weeks. Format: functional.

For `C[C@@H]1CCN(C(=O)CC#N)C[C@@H]1N(C)c1ncnc2[nH]ccc12` [TOFACITINIB], the Activity was 29.5% in assay [1] and 68.2% in assay [2].

Regarding `O=C(O)c1cc(/N=N/c2ccc(S(=O)(=O)Nc3ccccn3)cc2)ccc1O` [SULFASALAZINE], the Activity in assay [3] came out at 58.3%; in assay [4] it was 78.4%; in assay [5], 22.8%; in assay [6], 66.9%.

The values above are taken from ChEMBL document CHEMBL5523723, “G Protein-Coupled Estrogen Receptor-Mediated Anti-Inflammatory and Mucosal Healing Activity of a Trimethylpyridinol Analogue in Inflammatory Bowel Disease” (J Med Chem, 2024).
